From patent publication US8980938B2, “CXCR2 inhibitors” (Sanofi, priority 2006, dated 2015)

What follows are compounds tested against human CXCR2 (Homo sapiens (Human), UniProt P25025) (assay: CXCR2 inhibition: calcium fluorescence assay (FLIPR) with chemokine IL-8). Settings: CHO-K1 cells stably transfected with human CXCR2 and Gα16, Fluo-4 calcium response.
Type: cell-based
Description: Determination of CXCR2 Inhibition: Calcium Fluorescence Assay (FLIPR)
The assay is based on the detection of intracellular calcium changes detected by the selective, calcium-chelating dye, Fluo-4 (Molecular Probes). A large fluorescence intensity increase is observed upon calcium association with Fluo-4. The dye is delivered to the cell interior using an acetoxymethylester form of Fluo-4, where the intracellular esterase activity results in the charged species being released and trapped within the cytoplasm of the cell. […] By co-expressing the CXCR2 receptor and the promiscuous Gα16 protein, activation of this chemokine receptor is directed into this phospholipase C cascade resulting in intracellular calcium mobilization.
The CHO-K1 cells stably transfected with human CXCR2 and the promiscuous Gα16 protein are maintained in a log phase of growth at 37° C. and 5% CO2 in the following media: Iscove's, 10% FBS, 1X Penicillin-Streptomycin, 400 μg/ml G418 and 350 μg/ml Zeocin. Approximately 24-48 hours prior to the assay, 20,000-30,000 cells/well are plated onto a 96-well black/clear bottomed assay plate (Becton Dickinson) with a well volume of 180 μl. For dye loading the culture medium is carefully removed and replaced by 100 μl/well dye solution (4 μM Fluo-4 in 135 mM NaCl, 5 mM KCl, 1 mM magnesium sulphate, 5 mM glucose, 20 mM hepes, 2.5 mM probenecid; pH 7.4). Cells are incubated for 1 h at 37° C., and then washed 3× with buffer. After washing 90 μl buffer/well are left. Increasing concentrations of compound is added in 45 μl buffer (4× concentrated) followed by 10 min incubation at 37° C. Then the chemokine (10-100 nM) is applied in 45 μl buffer (4× concentrated) and the measurement is performed for 2 min. The IC50 value of a compound can be determined by calculation of % inhibition of total calcium response to the chemokine.
CXCR2 Inhibition with Chemokine IL-8 for Selected Example Compounds: […]

human CXCR2, sequence (P25025 whole entry): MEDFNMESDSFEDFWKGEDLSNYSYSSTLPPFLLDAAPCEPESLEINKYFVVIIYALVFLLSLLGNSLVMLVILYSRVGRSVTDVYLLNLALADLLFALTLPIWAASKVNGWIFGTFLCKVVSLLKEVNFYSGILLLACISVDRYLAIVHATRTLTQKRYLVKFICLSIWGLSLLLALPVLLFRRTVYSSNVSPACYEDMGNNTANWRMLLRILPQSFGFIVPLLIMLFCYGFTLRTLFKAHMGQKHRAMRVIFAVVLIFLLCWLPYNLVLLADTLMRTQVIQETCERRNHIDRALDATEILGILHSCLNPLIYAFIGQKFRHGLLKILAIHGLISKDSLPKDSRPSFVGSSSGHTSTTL

With `CC(C)(NC(=O)c1ccc2sccc2c1OCCOc1ccccc1)C(=O)O` [Example 12, 2-Methyl-2-{[4-(2-phenoxy-ethoxy)-benzo[b]thiophene-5-carbonyl]-amino}-propionic acid] as the compound, how does the IC50 read?
The IC50 was 1700 nM.

`CC(C)(NC(=O)c1ccc2c(c1OCCOc1ccccc1)CCCC2)C(=O)O` [Example 3, 2-Methyl-2-{[1-(2-phenoxy-ethoxy)-5,6,7,8-tetrahydro-naphthalene-2-carbonyl]-amino}-propionic acid] was tested. Which IC50 did it give?
Its IC50 is 1000 nM.

`CC(C)(NC(=O)c1ccc2ccsc2c1OCCOc1ccc(F)cc1)C(=O)O` [Example 11, 2-({7-[2-(4-Fluoro-phenoxy)-ethoxy]-benzo[b]thiophene-6-carbonyl}-amino)-2-methyl-propionic acid] was tested. Which IC50 did it give?
Its IC50 is 800 nM.

Which IC50 does the source give for `CC(C)(NC(=O)c1ccc2c(c1OCCCOc1ccccc1)CCCC2)C(=O)O` [Example 7, 2-Methyl-2-{[1-(3-phenoxy-propoxy)-5,6,7,8-tetrahydro-naphthalene-2-carbonyl]-amino}-propionic acid] here?
The IC50 was 2100 nM.

Which IC50 does the source give for `CC(C)(NC(=O)c1ccc2ccsc2c1OCCCc1ccccc1)C(=O)O` [Example 8, 2-Methyl-2-{[7-(3-phenyl-propoxy)-benzo[b]thiophene-6-carbonyl]-amino}-propionic acid] here?
The IC50 was 600 nM.

For `CC(C)(NC(=O)c1ccc2c(c1OCCC1CCCCC1)CCCC2)C(=O)O` [Example 2, 2-{[1-(2-Cyclohexyl-ethoxy)-5,6,7,8-tetrahydro-naphthalene-2-carbonyl]-amino}-2-methyl-propionic acid], which IC50 is on record?
The IC50 was 1400 nM.

With `CC(C)(NC(=O)c1ccc2c(c1OCCCCc1ccccc1)CCCC2)C(=O)O` [Example 5, 2-Methyl-2-{[1-(4-phenyl-butoxy)-5,6,7,8-tetrahydro-naphthalene-2-carbonyl]-amino}-propionic acid] as the compound, how does the IC50 read?
Its IC50 is 2000 nM.
